Experiments:
[1] = Acute toxicity in mice; conditions: in vivo; mouse, oral administration, after one week; read-out: Acute Toxicity (LD50), A
Description: (§1) (1) Acute toxicity and tonic convulsion in hind paw:
(§2) The acute toxicity and tonic convulsion occured by stimulus by hand touch were determined in the following manner to give the results shown in Table 2.
(a) Acute toxicity in mice:
38 Groups, each consisting of 5 mice (male dd-strain, weight -- 18 to 24 g), were used for the test and control groups. The compounds shown in Table 2 were administered orally or intraperitoneally to the mice. After one week, the survival ratio was measured.

[2] = Acute toxicity in rats; conditions: in vivo; rat, oral administration, after one week; read-out: Acute Toxicity (LD50), C
Description: as §1, §2
(b) Acute toxicity in rats:
28 Groups, each consisting of 5 rats (male Wistar strain, weight -- 200 g), were used for the test and control groups. The compounds shown in Table 2 were orally administered to the rats. After one week, the survival ratio was measured.

[3] = tested on: Mouse; experiment: Tonic convulsion of hind paw of mice (stimulus by hand touch); assay type: in vivo, mice (male dd-strain); conditions: oral, 30 to 360 minutes
Description: as §1, §2
(c) Tonic convulsion of hind paw of mice:
38 Groups, each consisting of 5 mice (male dd-strain, weight -- 18 to 24 g), were used for the test and control groups. The compounds shown in Table 2 were orally administered to the mice. At 30, 60, 120, 180 and 360 minutes after the administration, stimulus by hand touch was given to the mice and the tonic convulsion was observed.

[4] = tested on: hyperlipemia induced by Triton; experiment: Cholesterol-lowering activity on hyperlipemia induced by Triton in mice; assay type: in vivo, mice (male dd-strain); conditions: Mus musculus, po, 43 h, read-out: Ratio of the reduction of cholesterol
Description: (2) Cholesterol-Lowering activity on hyperlipemia induced by Triton in mice:
38 Groups, each consisting of 9 mice (male dd-strain, weight -- 19 to 21 g), were used for the test and control groups. […] Immediately after the administration and also after 20 hours from the administration of Triton, the mice were orally administered with 100 mg/kg of the compound shown in Table 3. 43 hours after the administration of Triton, the blood samples were collected by decapitation and then the corpuscle was removed by centrifugation. Cholesterol in the serum was determined by Zurkowski's method modified by Shibata (color of the test solution was developed by using sulfoalicyclic acid, acetic acid and sulfuric acid and the optical density of the solution was determined at 620 mμ.

[5] = tested on: Cholesterol in the serum; experiment: Cholesterol-lowering activity on normal rats of Wistar strain (serum cholesterol, liver weight); assay type: in vivo, rats (male Wistar strain); conditions: 0.3% in diet; for B - Ratio of decrease of liver weight: continuous administration for 4 days; for C - Ratio of decrease of cholesterol / D - Ratio of increase of liver weight: continuous administration for 14 days
Description: (3) Cholesteral-lowering activity on normal rats of Wistar strain:
(i) 22 Groups, each consisting of 5 rats (male Wistar strain, weight -- 150 to 180 g) were used for the test and control groups. After this, the blood samples were collected by decapitation and then the corpuscle was removed by centrifugation. Cholesterol in the serum was determined by Zurkowski's method modified by Shibata and also the liver was excised and weighed. The results are shown in Table 4 wherein the ratio of 100% denotes the amount of chloresterol and the weight of the liver of normal rats fed with powdery diet without the addition of the compound.

SMILES | LD50 at 168 h [1] [mg/kg] | LD50 at 168 h [2] [mg/kg] | Tonic convulsion ([3]; D = 1000 mg/kg) | inhibition in vivo at 100 mg/kg [4] [%] | B - Ratio of decrease of liver weight [5] [%] | Tonic convulsion ([3]; D = 500 mg/kg) | C - Ratio of decrease of cholesterol [5] [%] | D - Ratio of increase of liver weight [5] [%]
O=C(NC(Cc1ccccc1)C(=O)O)SCc1ccccc1 (racemic) [Compound 17, N-benzylthiocarbonyl-D,L-phenylalanine] | > 1000 | > 100 | + | 95 | 35.2 |  |  | 
COC(=O)[C@H](Cc1ccccc1)NC(=O)SCc1ccc(F)cc1 [Compound 12, N-(4-fluorobenzylthiocarbonyl)-L-phenylalanine methylester] | > 1000 | > 100 | + | 76 | 45.9 |  |  | 
O=C(N[C@@H](Cc1ccccc1)C(=O)O)SCc1ccccc1 [Compound 16, N-benzylthiocarbonyl-L-phenylalanine] | > 1000 | > 200 |  | 86 |  | + | 9.2 | 79
COC(=O)[C@H](Cc1ccccc1)NC(=O)SCc1ccccc1 [Compound 18, N-benzylthiocarbonyl-L-phenylalanine methylester] | > 1000 | > 200 |  | 80 | 39 | + | 3.0 | 92
Cc1ccccc1CSC(=O)N[C@@H](Cc1ccccc1)C(=O)O [Compound 20, N-(2-methylbenzylthiocarbonyl)-L-phenylalanine] | > 1000 |  | + | 47 |  |  |  | 
COC(=O)[C@H](Cc1ccccc1)NC(=O)SCc1ccccc1C [Compound 21, N-(2-methylbenzylthiocarbonyl)-L-phenylalanine methylester] | > 1000 |  | + | 43 |  |  |  | 
Cc1cccc(CSC(=O)N[C@@H](Cc2ccccc2)C(=O)O)c1 [Compound 22, N-(3-methylbenzylthiocarbonyl)-L-phenylalanine] | > 1000 |  | + | 46 |  |  |  | 

— US4138485A, “Phenylalanine derivatives” (Kyowa Hakko Kogyo Kabushiki Kaisha, priority 1976, dated 1979)
